From patent US11014911B2, “CDK2 inhibitors” (Pfizer Inc., priority 2019, dated 2021)

Columns and labels:
[1] = target: GSK3β (H350L) (Homo sapiens (Human), UniProt P49841); assay: biochemical; settings: GSK3β Ki (nM)
Description: The assay was initiated with the addition of ATP, following 15 minutes pre-incubation of enzyme and inhibitor at room temperature in the reaction mixture. The reaction was stopped after 30 minutes at room temperature by the addition of 50 μL of 80 mM EDTA.

[2] = target: CDK2/Cyclin E1 full length (Homo sapiens (Human), UniProt P24941); assay: CDK2/Cyclin E1 full length mobility shift assay; format: biochemical

GSK3β (H350L), sequence (P49841 whole entry, stated change not applied): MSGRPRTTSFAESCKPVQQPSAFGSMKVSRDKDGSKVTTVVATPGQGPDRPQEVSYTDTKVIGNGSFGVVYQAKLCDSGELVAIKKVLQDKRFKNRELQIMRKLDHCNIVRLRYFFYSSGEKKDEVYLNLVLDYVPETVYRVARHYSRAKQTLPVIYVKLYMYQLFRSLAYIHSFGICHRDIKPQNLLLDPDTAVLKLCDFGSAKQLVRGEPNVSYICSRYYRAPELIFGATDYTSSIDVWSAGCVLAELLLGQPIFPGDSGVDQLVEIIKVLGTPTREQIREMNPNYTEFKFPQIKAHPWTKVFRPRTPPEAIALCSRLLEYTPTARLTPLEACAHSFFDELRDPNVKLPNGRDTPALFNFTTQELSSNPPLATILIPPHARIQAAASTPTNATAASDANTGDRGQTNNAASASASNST

SMILES	Ki [1] [nM]	Ki [2] [nM]
CC1(NC(=O)O[C@@H]2CC[C@H](c3cc(NC(=O)Cc4cnc(C(F)(F)F)cn4)n[nH]3)C2)CCOC1 (single isomer, unassigned) [Example 494]	53.3	1.02
CCC(CO)CNC(=O)O[C@@H]1CC[C@H](c2cc(NC(=O)Cc3ccc(OC)nc3)n[nH]2)C1 (single isomer, unassigned) [Example 533]	1.41	0.77
CCC(CO)CNC(=O)O[C@@H]1CC[C@H](c2cc(NC(=O)Cc3cc(F)cc(F)c3)n[nH]2)C1 (single isomer, unassigned) [Example 537]	10.7	1.34
Cc1ncc(CC(=O)Nc2cc([C@H]3CC[C@@H](OC(=O)N4C[C@@H](C#N)[C@@H]4C)C3)[nH]n2)s1 (single isomer, unassigned) [Example 160]	1.72	0.15
CC(CC(F)(F)F)NC(=O)O[C@@H]1CC[C@H](c2cc(NC(=O)Cc3ccon3)n[nH]2)C1 (single isomer, unassigned) [Example 64]	18.7	0.14
COCc1cc(C(=O)Nc2cc([C@H]3CC[C@@H](OC(=O)NC4(C)CC4)C3)[nH]n2)n(C)n1 [Example 8, (1R,3S)-3-[3-({[3-(methoxymethyl)-1-methyl-1H-pyrazol-5-yl]carbonyl}amino)-1H-pyrazol-5-yl]cyclopentyl (1-methylcyclopropyl)carbamate]	667	0.5
Cc1ncc(CC(=O)Nc2cc([C@H]3CC[C@@H](OC(=O)NC(C)C(C)(F)F)C3)[nH]n2)s1 (single isomer, unassigned) [Example 391]	38	1.38
CC1(NC(=O)O[C@@H]2CC[C@H](c3cc(NC(=O)Cc4ccno4)n[nH]3)C2)CCOC1 (single isomer, unassigned) [Example 473]	66.2	0.36
CC(CC(F)(F)F)NC(=O)O[C@@H]1CC[C@H](c2cc(NC(=O)Cc3ccno3)n[nH]2)C1 (single isomer, unassigned) [Example 86]	12.9	0.25
CCC1CCN1C(=O)O[C@@H]1CC[C@H](c2cc(NC(=O)Cc3cc(C)no3)n[nH]2)C1 (single isomer, unassigned) [Example 598]	16.4	0.78
CC1(NC(=O)O[C@@H]2CC[C@H](c3cc(NC(=O)Cc4cnc(C(F)(F)F)cn4)n[nH]3)C2)CCOC1 (single isomer, unassigned) [Example 493]	157	0.98
COCc1cc(C(=O)Nc2cc([C@H]3CC[C@@H](OC(=O)NC(C)CC(F)(F)F)C3)[nH]n2)n(C)n1 (single isomer, unassigned) [Example 10]	101	0.25
COc1ncc(CC(=O)Nc2cc([C@H]3CC[C@@H](OC(=O)NC4(C)CCOC4)C3)[nH]n2)s1 (single isomer, unassigned) [Example 126]	26.6	0.27
Cc1ncc(CC(=O)Nc2cc([C@H]3CC[C@@H](OC(=O)NC(C)CC(F)(F)F)C3)[nH]n2)s1 (single isomer, unassigned) [Example 80]	8.85	0.15
COc1cc(CC(=O)Nc2cc([C@H]3CC[C@@H](OC(=O)N4CCC4C)C3)[nH]n2)ccn1 (single isomer, unassigned) [Example 153]	9.15	0.22
C[C@H]1[C@H](C#N)CN1C(=O)O[C@@H]1CC[C@H](c2cc(NC(=O)Cc3ccccc3)n[nH]2)C1 (single isomer, unassigned) [Example 161]	5.93	0.15
Cc1ccc(CC(=O)Nc2cc([C@H]3CC[C@@H](OC(=O)NC(C)C(C)(F)F)C3)[nH]n2)cn1 (single isomer, unassigned) [Example 388]	36.9	2.34
Cc1cc(CC(=O)Nc2cc([C@H]3CC[C@@H](OC(=O)NC(C)CC(F)(F)F)C3)[nH]n2)on1 (single isomer, unassigned) [Example 72]	12.8	0.15
CCC(CO)CNC(=O)O[C@@H]1CC[C@H](c2cc(NC(=O)Cc3ccnc(OC)c3)n[nH]2)C1 (single isomer, unassigned) [Example 534]	4.63	0.85
CCC(NC(=O)O[C@@H]1CC[C@H](c2cc(NC(=O)Cc3ccnc(OC)c3)n[nH]2)C1)C(F)(F)F (single isomer, unassigned) [Example 406]	73.3	1.81
CCC(NC(=O)O[C@@H]1CC[C@H](c2cc(NC(=O)Cc3cc(C)no3)n[nH]2)C1)C(F)(F)F (single isomer, unassigned) [Example 396]	139	2.1
Cc1cnc(CC(=O)Nc2cc([C@H]3CC[C@@H](OC(=O)NC(C)CC(F)F)C3)[nH]n2)o1 (single isomer, unassigned) [Example 97]	18	0.39
CC1(NC(=O)O[C@@H]2CC[C@H](c3cc(NC(=O)Cc4cc(F)cc(F)c4)n[nH]3)C2)CCOC1 (single isomer, unassigned) [Example 120]	34.9	0.09
Cc1c(CC(=O)Nc2cc([C@H]3CC[C@@H](OC(=O)NC(C)CC(F)(F)F)C3)[nH]n2)cnn1C (single isomer, unassigned) [Example 401]	32.9	0.34

SMILES	Ki [1] [nM]	Ki [2] [nM]
CCC(NC(=O)O[C@@H]1CC[C@H](c2cc(NC(=O)Cc3ccnc(OC)c3)n[nH]2)C1)C(F)(F)F (single isomer, unassigned) [Example 405]	97.9	1.37
Cc1ccc(C(=O)Nc2cc([C@H]3CC[C@@H](OC(=O)NC(C)CC(F)(F)F)C3)[nH]n2)cn1 (single isomer, unassigned) [Example 70]	31.3	0.35
Cc1ncc(CC(=O)Nc2cc([C@H]3CC[C@@H](OC(=O)NC4(C)CCOC4)C3)[nH]n2)s1 (single isomer, unassigned) [Example 482]	36.2	0.55
CCC(NC(=O)O[C@@H]1CC[C@H](c2cc(NC(=O)Cc3cnc(C)s3)n[nH]2)C1)C(F)(F)F (single isomer, unassigned) [Example 403]	76.1	1.76
COc1cc(CC(=O)Nc2cc([C@H]3CC[C@@H](OC(=O)NC(C)CC(F)F)C3)[nH]n2)ccn1 (single isomer, unassigned) [Example 98]	21.6	0.33
COc1cc(CC(=O)Nc2cc([C@H]3CC[C@@H](OC(=O)NC(C)C(C)(F)F)C3)[nH]n2)ccn1 (single isomer, unassigned) [Example 393]	34	0.97
Cc1cnc(CC(=O)Nc2cc([C@H]3CC[C@@H](OC(=O)NC(C)CC(F)(F)F)C3)[nH]n2)cn1 (single isomer, unassigned) [Example 74]	13.2	0.3
CC(C)NC(=O)O[C@@H]1CC[C@H](c2cc(NC(=O)C3COc4ccccc43)n[nH]2)C1 (single isomer, unassigned) [Example 56]	42.8	0.25
Cc1cc(CC(=O)Nc2cc([C@H]3CC[C@@H](OC(=O)N4CCC4C)C3)[nH]n2)on1 (single isomer, unassigned) [Example 589]	18.2	0.59
CCC(NC(=O)O[C@@H]1CC[C@H](c2cc(NC(=O)Cc3ccc(C)nc3)n[nH]2)C1)C(F)(F)F (single isomer, unassigned) [Example 399]	68.8	0.47
CC1(NC(=O)O[C@@H]2CC[C@H](c3cc(NC(=O)Cc4cc(F)cc(F)c4)n[nH]3)C2)CCOC1 (single isomer, unassigned) [Example 121]	19.4	0.08
CCC(NC(=O)O[C@@H]1CC[C@H](c2cc(NC(=O)Cc3cnc(C)s3)n[nH]2)C1)C(F)(F)F (single isomer, unassigned) [Example 404]	84.3	1.38
COc1ccc(CC(=O)Nc2cc([C@H]3CC[C@@H](OC(=O)NC4(C)CCOC4)C3)[nH]n2)cc1 (single isomer, unassigned) [Example 484]	30.3	0.32
CCCNC(=O)O[C@H]1CC[C@@H](c2cc(NC(=O)C3COc4ccccc43)n[nH]2)C1 (single isomer, unassigned) [Example 25]	135	2.7
COCc1cc(C(=O)Nc2cc([C@H]3CC[C@@H](OC(=O)NC4(C)CCOC4)C3)[nH]n2)n(C)n1 (single isomer, unassigned) [Example 487]	> 47.6	0.67
CCC(NC(=O)O[C@@H]1CC[C@H](c2cc(NC(=O)Cc3ccc(C)nc3)n[nH]2)C1)C(F)(F)F (single isomer, unassigned) [Example 398]	44.1	0.65
Cc1ccc(CC(=O)Nc2cc([C@H]3CC[C@@H](OC(=O)NC(C)CC(F)(F)F)C3)[nH]n2)cn1 (single isomer, unassigned) [Example 75]	9.59	0.26
CCC(CO)CNC(=O)O[C@@H]1CC[C@H](c2cc(NC(=O)Cc3cnc(C)s3)n[nH]2)C1 (single isomer, unassigned) [Example 528]	3.6	1.11
COc1ncc(CC(=O)Nc2cc([C@H]3CC[C@@H](OC(=O)NC4(C)CCOC4)C3)[nH]n2)s1 (single isomer, unassigned) [Example 127]	20.1	0.23
CC(CC(F)(F)F)N(C)C(=O)O[C@@H]1CC[C@H](c2cc(NC(=O)Cc3ccno3)n[nH]2)C1 (single isomer, unassigned) [Example 90]	2.36	0.23
CC(CC(F)(F)F)NC(=O)O[C@@H]1CC[C@H](c2cc(NC(=O)Cc3cnco3)n[nH]2)C1 (single isomer, unassigned) [Example 84]	12	0.1
CCC(CO)CNC(=O)O[C@@H]1CC[C@H](c2cc(NC(=O)Cc3cc(C)no3)n[nH]2)C1 (single isomer, unassigned) [Example 524]	10.9	1.69
COc1ccc(S(C)(=O)=O)c(CC(=O)Nc2cc([C@H]3CC[C@@H](OC(=O)NC(C)C(F)(F)F)C3)[nH]n2)c1 (single isomer, unassigned) [Example 291]	> 47.6	0.43
